Experimental data as given in PubChem BioAssay AID248 (DTP/NCI, 2004).
Toxic doses and inconclusive results are not listed. Cut-off read from the data, not from the text of the source: active = T/C of 150% or more; inactive = T/C below 125%.

Tested on: L1210 leukemia ip in BDF1 mice, survival T/C
Assay: NCI In Vivo Anticancer Drug Screen. Data for tumor model L1210 Leukemia (intraperitoneal) in B6D2F1 (BDF1) mice
Conditions: endpoint: mean survival time, higher = longer survival
Summary of the method: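 Value reflects the ratio of survival in compound-treated mice to survival in vehicle-treated controls, with both groups carrying the same transplanted tumor.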

[1] = dose: 100.0 mg/kg/injection, schedule: Q04DX003 (ip), vehicle: acetone
[2] = dose: 200.0 mg/kg/injection, schedule: Q04DX003 (ip), vehicle: acetone
[3] = dose: 400.0 mg/kg/injection, schedule: Q04DX003 (ip), vehicle: acetone
[4] = dose: 100.0 mg/kg/injection, schedule: Q04DX003 (ip), vehicle: saline with Tween-80
[5] = dose: 200.0 mg/kg/injection, schedule: Q04DX003 (ip), vehicle: saline with Tween-80
[6] = dose: 400.0 mg/kg/injection, schedule: Q04DX003 (ip), vehicle: saline with Tween-80
[7] = dose: 100.0 mg/kg/injection, schedule: Q04DX002 (ip), vehicle: Klucel (hydroxypropylcellulose) (HPC)
[8] = dose: 200.0 mg/kg/injection, schedule: Q04DX002 (ip), vehicle: Klucel (hydroxypropylcellulose) (HPC)
[9] = dose: 400.0 mg/kg/injection, schedule: Q04DX002 (ip), vehicle: Klucel (hydroxypropylcellulose) (HPC)
[10] = dose: 100.0 mg/kg/injection, schedule: Q01DX001 (ip), vehicle: other
[11] = dose: 400.0 mg/kg/injection, schedule: Q01DX001 (ip), vehicle: other
[12] = dose: 100.0 mg/kg/injection, schedule: Q01DX001 (ip), vehicle: saline
[13] = dose: 200.0 mg/kg/injection, schedule: Q01DX001 (ip), vehicle: saline
[14] = dose: 400.0 mg/kg/injection, schedule: Q01DX001 (ip), vehicle: saline
[15] = dose: 100.0 mg/kg/injection, schedule: Q01DX009 (ip), vehicle: saline with Tween-80
[16] = dose: 200.0 mg/kg/injection, schedule: Q01DX009 (ip), vehicle: saline with Tween-80
[17] = dose: 400.0 mg/kg/injection, schedule: Q01DX009 (ip), vehicle: saline with Tween-80
[18] = dose: 100.0 mg/kg/injection, schedule: Q04DX002 (ip), vehicle: saline with Tween-80
[19] = dose: 200.0 mg/kg/injection, schedule: Q04DX002 (ip), vehicle: saline with Tween-80
[20] = dose: 100.0 mg/kg/injection, schedule: Q01DX001 (ip), vehicle: carboxymethylcellulose (CMC)
[21] = dose: 200.0 mg/kg/injection, schedule: Q01DX001 (ip), vehicle: carboxymethylcellulose (CMC)
[22] = dose: 400.0 mg/kg/injection, schedule: Q01DX001 (ip), vehicle: carboxymethylcellulose (CMC)
[23] = dose: 100.0 mg/kg/injection, schedule: Q01DX009 (ip), vehicle: Klucel (hydroxypropylcellulose) (HPC)
[24] = dose: 200.0 mg/kg/injection, schedule: Q01DX009 (ip), vehicle: Klucel (hydroxypropylcellulose) (HPC)
[25] = dose: 400.0 mg/kg/injection, schedule: Q01DX009 (ip), vehicle: Klucel (hydroxypropylcellulose) (HPC)

Measured: T/C

Cc1ccc(S(=O)(=O)c2ccc(Cl)cc2)cc1
inactive: [1] 110 % of control | [2] 110 % of control | [3] 109 % of control

CCOC(=O)C[P+](c1cccc(OC)c1)(c1cccc(OC)c1)c1cccc(OC)c1
inactive: dose: 15.0 mg/kg/injection, schedule: Q01DX001 (ip), vehicle: carboxymethylcellulose (CMC) 90 % of control | dose: 30.0 mg/kg/injection, schedule: Q01DX001 (ip), vehicle: carboxymethylcellulose (CMC) 91 % of control

CCOP(=O)(OCC)/C(C#N)=C\c1ccc(OC)c(OC)c1
inactive: [4] 97 % of control | [5] 92 % of control | [6] 92 % of control

O=C(O)c1ccccc1Cc1ccccc1
inactive: [7] 94 % of control | [8] 98 % of control | [9] 100 % of control

O=C(NC(=O)C(C(=O)c1ccccc1)c1ccccc1)c1ccccc1 (stereo not drawn)
inactive: [10] 86 % of control | dose: 200.0 mg/kg/injection, schedule: Q01DX001 (ip), vehicle: other 89 % of control | [11] 91 % of control

C1CC2CCCC3C4CCCC5CCCC(C(C1)C23)C54 (stereo not drawn)
inactive: [12] 94 % of control | [13] 100 % of control | [14] 97 % of control

O=C1Cc2ccccc2CNN1
inactive: [10] 90 % of control | [11] 102 % of control

CCCCCCCCCCCCCCCCCCCC
inactive: dose: 25.0 mg/kg/injection, schedule: Q01DX009 (ip), vehicle: other 109 % of control | dose: 50.0 mg/kg/injection, schedule: Q01DX009 (ip), vehicle: other 101 % of control | dose: 100.0 mg/kg/injection, schedule: Q01DX009 (ip), vehicle: other 93 % of control

CCCCNC(=O)Oc1cccc(NC(=O)OC)c1
inactive: [15] 96 % of control | [16] 92 % of control | [17] 105 % of control

CC(=O)C(C=NCCN=CC(C(C)=O)C(C)=O)C(C)=O.[Ni]
inactive: [18] 98 % of control | [19] 98 % of control

O=c1cccc(CCCCCCc2cccc(=O)[nH]2)[nH]1
inactive: [12] 106 % of control | [13] 95 % of control | [14] 96 % of control

NC(=O)c1nc2c([nH]c1=O)CCCC2
inactive: [15] 94 % of control | [4] 93 % of control | [16] 94 % of control | [5] 94 % of control | [17] 94 % of control | [6] 94 % of control

CC(NC(=O)OC(C)(C)C)C(=O)O (stereo not drawn)
inactive: [20] 104 % of control | [21] 104 % of control | [22] 104 % of control

Cc1cn[nH]c1-c1ccccc1O
inactive: [18] 96 % of control | [19] 100 % of control | dose: 400.0 mg/kg/injection, schedule: Q04DX002 (ip), vehicle: saline with Tween-80 100 % of control

[Br][Hg][Br].c1ccc(N=P(c2ccccc2)(c2ccccc2)c2ccccc2)cc1
inactive: dose: 9.38 mg/kg/injection, schedule: Q01DX001 (ip), vehicle: other 95 % of control | dose: 18.75 mg/kg/injection, schedule: Q01DX001 (ip), vehicle: other 95 % of control | dose: 37.5 mg/kg/injection, schedule: Q01DX001 (ip), vehicle: other 100 % of control

O=C(NCCNC(=O)c1cccnc1)c1ccncc1
inactive: [1] 95 % of control | [2] 105 % of control | [3] 106 % of control

COc1cccc(CNc2cccc([N+](=O)[O-])c2)c1OC
inactive: [23] 95 % of control | dose: 100.0 mg/kg/injection, schedule: Q04DX003 (ip), vehicle: Klucel (hydroxypropylcellulose) (HPC) 102 % of control | [24] 97 % of control | dose: 200.0 mg/kg/injection, schedule: Q04DX003 (ip), vehicle: Klucel (hydroxypropylcellulose) (HPC) 96 % of control | [25] 95 % of control | dose: 400.0 mg/kg/injection, schedule: Q04DX003 (ip), vehicle: Klucel (hydroxypropylcellulose) (HPC) 95 % of control

Cc1cccc(C(=O)CC(O)(C(F)(F)F)C(F)(F)F)n1
inactive: [4] 92 % of control | [5] 86 % of control | [6] 90 % of control

OCC1OC(n2c(=S)[nH]c3ccccc32)C(O)C1O (stereo not drawn)
inactive: [12] 108 % of control | [13] 100 % of control | [14] 106 % of control

CC(=O)NC(CSSCC(N)C(=O)O)C(=O)O (stereo not drawn) (tested in a mixture with another compound)
inactive: dose: 12.5 mg/kg/injection, schedule: Q04DX002 (ip), vehicle: DMSO 93 % of control | dose: 25.0 mg/kg/injection, schedule: Q04DX002 (ip), vehicle: DMSO 103 % of control | dose: 50.0 mg/kg/injection, schedule: Q04DX002 (ip), vehicle: DMSO 93 % of control

CCCCCCCCCCC(O)CN1CCN(c2ccc(C)cc2)CC1 (stereo not drawn)
inactive: dose: 12.5 mg/kg/injection, schedule: Q01DX009 (ip), vehicle: Klucel (hydroxypropylcellulose) (HPC) 90 % of control | dose: 25.0 mg/kg/injection, schedule: Q01DX009 (ip), vehicle: Klucel (hydroxypropylcellulose) (HPC) 90 % of control | dose: 50.0 mg/kg/injection, schedule: Q01DX009 (ip), vehicle: Klucel (hydroxypropylcellulose) (HPC) 89 % of control | [23] 94 % of control | [24] 101 % of control

Cc1n[nH]c(=S)n1NC=O
inactive: [12] 94 % of control | [13] 94 % of control | [14] 90 % of control

Cc1cccc(OCC(O)CN(Cc2ccsc2)c2ccccn2)c1 (stereo not drawn)
inactive: [7] 94 % of control | [8] 106 % of control

Cc1csc[n+]1C1CCCCC1
inactive: dose: 75.0 mg/kg/injection, schedule: Q01DX001 (ip), vehicle: saline 100 % of control

Cc1ccc(S(=O)(=O)N(Cc2cccc([N+](=O)[O-])c2)c2ccc(C(=O)O)cc2)cc1
inactive: [7] 91 % of control | [8] 98 % of control | [9] 102 % of control

CCC[Si](C)(C)C
inactive: [20] 94 % of control | [21] 96 % of control | [22] 89 % of control

Cc1cc(C)nc(/N=C(/N)Nc2ccc(S(=O)(=O)NC(=O)Nc3ccccc3)cc2)n1
inactive: [12] 92 % of control | [13] 98 % of control | [14] 102 % of control

NC(=O)c1cnc(N)nc1C(N)=O
inactive: [15] 94 % of control | [4] 96 % of control | [16] 100 % of control | [5] 100 % of control | [17] 96 % of control | [6] 94 % of control

OCCN1CC1
inactive: dose: 1.0 mg/kg/injection, schedule: Q01DX009 (ip), vehicle: saline 92 % of control | dose: 1.56 mg/kg/injection, schedule: Q01DX009 (ip), vehicle: saline 100 % of control | dose: 2.3 mg/kg/injection, schedule: Q01DX009 (ip), vehicle: saline 96 % of control | dose: 3.12 mg/kg/injection, schedule: Q01DX009 (ip), vehicle: saline 120 % of control | dose: 6.25 mg/kg/injection, schedule: Q01DX009 (ip), vehicle: saline 94 % of control

CN(C)c1ccc(/C=C/C(=O)/C=C/c2ccc(N(C)C)cc2)cc1
inactive: [23] 96 % of control | [24] 95 % of control | [25] 101 % of control

O=C(C(Br)C(Br)c1ccccc1)N1CCOCC1 (stereo not drawn)
inactive: dose: 100.0 mg/kg/injection, schedule: Q01DX009 (ip), vehicle: saline sonified 108 % of control | dose: 100.0 mg/kg/injection, schedule: Q04DX003 (ip), vehicle: saline 109 % of control | dose: 200.0 mg/kg/injection, schedule: Q01DX009 (ip), vehicle: saline sonified 101 % of control | dose: 200.0 mg/kg/injection, schedule: Q04DX003 (ip), vehicle: saline 100 % of control | dose: 400.0 mg/kg/injection, schedule: Q01DX009 (ip), vehicle: saline sonified 95 % of control | dose: 400.0 mg/kg/injection, schedule: Q04DX003 (ip), vehicle: saline 98 % of control
